What was measured:
[1] = target: recombinant human (RH) DPP1 (Homo sapiens (Human), UniProt P53634); experiment: Test A1: Fluorescence Assay for Recombinant Human (RH) DPP1; type: biochemical; conditions: Test A1 (Examples 1-35); rhDPP1 ~50 pM, 100 µM H-Gly-Arg-AMC, 22° C.
Protocol: Test A1: Fluorescence Assay for Recombinant Human (RH) DPP1
The activity of DPP1 was determined by measuring the enzymatic release of aminomethyl coumarin (AMC) from the peptide substrate (H-Gly-Arg-AMC), which leads to an increase in fluorescence intensity at λex =350 nm and λem =450 nm. The assay was carried out in black 384 well plates in a final volume of 50 µl at 22° C. The assay conditions contained the following: 25 mM piperazine buffer pH 5.0; 50 mM NaCl, 5 mM DTT; 0.01% (v/v) Triton X-100; 100 µMH-Gly-Arg-AMC and rhDPP1 (~50 pM). […] Routinely, inhibitors were pre-incubated with rhDPP1 for 30-60 min prior to the addition of the peptide substrate to start the reaction for a further 60 min at 22° C.

[2] = Test B: In-vitro Competitive Aortic Tissue Binding Assay; design: species or system Han Wistar rats; conditions: 100 µM compound, competition with [14C]-labelled WO2010/128324 Ex. 3, categories strong binder, medium binder, no binder
Protocol: To assist the design of DPP1 inhibitors with a decreased risk of binding to elastin rich tissues, such as the aorta, the in-vitro competitive aortic binding assay disclosed below (Test B) was developed to facilitate the selection process.
Test B: In-vitro Competitive Aortic Tissue Binding Assay
Aortic homogenate was prepared from the thoracic aortae of Han Wistar rats. Freshly isolated thoracic aortae were frozen, and later thawed and stripped of non-elastic material. […] Homogenate concentration was adjusted to 30 mg/mL in Puck’s saline, and aliquots were stored at -80° C. until use. Positive and negative control compounds and test compounds were made up to 100 mM in DMSO, and added to 1 mL aliquots of aortic homogenate in Puck’s saline for a final concentration of 100 µM. Homogenate samples were pre-incubated with test compounds at 37° C., rotating, overnight. [^14C]4-Amino-N-[(1S)-1-cyano-2-(4′-cyanobiphenyl-4-yl)ethyl]tetrahydro-2H-pyran-4-carboxamide was then added to all samples to a final concentration of 100 µM, and samples were incubated at 37° C., rotating, for a further 2 h. Protein was precipitated from each sample by the addition of 10 mL acetone, prechilled to -20° C. Samples were left overnight at -20° C. to allow complete precipitation. […] Precipitate was washed by resuspension in 10 mL 80% methanol in distilled water, and re-pelleted by centrifugation at 4,500 × g at 4° C. for 20 min. […] After final wash, precipitate was air-dried, and dissolved overnight in 1 mL NCSII Tissue Solubiliser. 1 mL aliquots of supernatants were added to 5 mL Ultima Gold scintillation fluid (Perkin Elmer, MA, U.S.A.), and 1 mL solubilised pellets were added to 5 mL Hionic-Fluor scintillation fluid (Perkin Elmer, MA, U.S.A.). Radioactivity of samples was determined on a Beckman LS6500 multipurpose scintillation counter (Beckman Coulter, IN, U.S.A.). […] Duplicate samples were tested for each compound on each experimental occasion, and at least two experiments were run for each test compound. […] 1-way ANOVA and Bonferroni’s multiple comparison tests were performed to calculate significance of differences from vehicle control.

[3] = QWBA studies, literature (Schmidt et al. 1984); cited from earlier work
[4] = rat quantitative whole-body autoradiography (QWBA) studies; type: in vivo

recombinant human (RH) DPP1, sequence (P53634 231-394): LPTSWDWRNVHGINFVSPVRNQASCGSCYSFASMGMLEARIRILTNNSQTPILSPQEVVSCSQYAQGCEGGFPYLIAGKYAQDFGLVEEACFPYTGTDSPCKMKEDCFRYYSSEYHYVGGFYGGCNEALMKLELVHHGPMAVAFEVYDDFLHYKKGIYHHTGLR
recombinant human (RH) DPP1, sequence (P53634 25-143): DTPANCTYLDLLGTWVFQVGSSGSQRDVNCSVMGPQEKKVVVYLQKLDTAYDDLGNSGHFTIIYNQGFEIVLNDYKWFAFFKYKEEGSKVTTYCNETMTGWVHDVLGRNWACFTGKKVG
recombinant human (RH) DPP1, sequence (P53634 395-463): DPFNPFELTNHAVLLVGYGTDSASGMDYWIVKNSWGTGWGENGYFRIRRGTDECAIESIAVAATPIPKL

Structure (SMILES) | DPP1 activity, pIC50 [1] | Aortic Tissue Binding [2] | further results
Cc1cc(-c2ccc(C[C@@H](C#N)NC(=O)[C@@H]3CNCCCO3)cc2)cc2c1oc(=O)n2C [Example 3, (2S)-N-{(1S)-1-Cyano-2-[4-(3,7-dimethyl-2-oxo-2,3-dihydro-1,3-benzoxazol-5-yl)phenyl]ethyl}-1,4-oxazepane-2-carboxamide] | 7.99 | – | –
N#Cc1ccc(-c2ccc(C[C@@H](C#N)NC(=O)[C@@H]3CCCCN3)cc2)cc1 [WO2009/074829 (Example 24)] | – | Binder | –
N#Cc1ccc(-c2ccc(C[C@@H](C#N)NC(=O)[C@@H]3CNCCCO3)cc2)cc1 [Example 1, (2S)-N-[(1S)-1-Cyano-2-(4′-cyanobiphenyl-4-yl)ethyl]-1,4-oxazepane-2-carboxamide] | 7.45 | – | –
Cn1c(=O)oc2ccc(-c3ccc(C[C@@H](C#N)NC(=O)[C@@H]4CNCCCO4)cc3)cc21 [Example 2, (2S)-N-{(1S)-1-cyano-2-[4-(3-methyl-2-oxo-2,3-dihydro-1,3-benzoxazol-5-yl)phenyl]ethyl}-1,4-oxazepane-2-carboxamide] | – | No binder | –
CC(c1ccc(Cl)c(Cl)c1)N1N=C(N)CC1=O (stereo not shown) [muzolimine] | – | – | retention in the aorta [3]: retained selectively in the aorta
Cn1c(=O)oc2ccc(-c3ccc(C[C@@H](C#N)NC(=O)[C@@H]4CCCCN4)cc3)cc21 [WO2009/074829 (Example 96)] | – | Medium binder | –
N#Cc1ccc(-c2ccc(C[C@@H](C#N)NC(=O)C3(N)CCOCC3)cc2)cc1 [WO2010/128324 (Ex. 3), 4-amino-N-[(1S)-1-cyano-2-(4′-cyanobiphenyl-4-yl)ethyl]tetrahydro-2H-pyran-4-carboxamide] | – | Strong binder (reference) | aortic retention [4]: high level of aortic retention
CS(=O)(=O)Oc1cccc(-c2ccc(C[C@@H](C#N)NC(=O)[C@@H]3CNCCCO3)cc2)c1 [Example 4, 4′-[(2S)-2-Cyano-2-{[(2S)-1,4-oxazepan-2-ylcarbonyl] Amino}ethyl] Biphenyl-3-yl methanesulfonate] | 7.1 | – | –
Cn1c(=O)oc2ccc(-c3ccc(C[C@@H](C#N)NC(=O)C4(N)CCOCC4)cc3)cc21 [WO2010/128324 (Example 17)] | – | Strong binder | –

Source: patent publication US20230278969A1, “CERTAIN (2S)-N-[(1S)-1-CYANO-2-PHENYLETHYL]-1,4-OXAZEPANE-2-CARBOXAMIDES AS DIPEPTIDYL PEPTIDASE 1 INHIBITORS” (AstraZeneca AB, priority 2014, published 2023)
